By Kd is commonly meant a measure of binding affinity in units of concentration. As usually defined, the kon is the second-order rate constant of association. A low value points to slow association. What is called koff is the first-order rate constant of dissociation. High values mean a short-lived complex, low ones a long-lived complex.

The values that follow come from article PMC10683482, “Offsetting Low-Affinity Carbohydrate Binding with Covalency to Engage Sugar-Specific Proteins for Tumor-Immune Proximity Induction” (ACS Central Science, 2023).

For experiment [1], the system named is human serum antirhamnose antibody (IgG and IgM). Kind of experiment: ELISA covalent engagement of serum anti-rhamnose antibody. The class given is binding. The note with it: 2 μM compound, 2% human serum, 48 h; rhamnose 100 mM added after incubation. The procedure:
Figure 2 Capacity of Rha-cARMs to specifically covalently engage monoclonal anti-23F and serum anti-rhamnose. A. Chemical structures of the molecules investigated. B. Assessment of covalent vs noncovalent (cARM/ARM) engagement of human serum antirhamnose antibody via an ELISA assay. Each ARM/cARM (2 μM) was incubated with 2% human serum for 48 h and subsequently incubated directly on a streptavidin ELISA plate. Recruitment was evaluated by the addition of anti-IgG or anti-IgM HRP-conjugated secondary antibody with subsequent chromogenic substrate addition. “Comp” represents the addition of competitor rhamnose (500 mM) during 48 h of incubation. “Quench” refers to the addition of competitor rhamnose (100 mM) prior to ELISA plate binding but after 48 h of reaction incubation. C. SDS-PAGE fluorescent image of anti-23F antibody covalently labeled by fluorophore substituted Rha-cARMs (6–8). A representative protein stain associated with each gel is included on the left side of the fluorescent gel images. In all cases, 2 μM anti-23F antibody is incubated with 4 μM cARM (2 equiv) for 24 h in PBS spiked with 10% human serum. Where noted, L-rhamnose (100 mM, Rha. C) was used during incubation as a competitor for specific covalent labeling. Where noted, a free fluoresceine competitor (2.5 mM, Fluor. C) was used to distinguish fluorescein-promoted covalent labeling from rhamnose-promoted. The darker background in gels corresponding to cARM 6, 7 is attributed to the differing capacity of free cARM-fluorophore (fluoroscein vs A647) to be retained in gel, as well as an alternative imaging channel (Cy2 for fluorescein, Cy5 for A647). […] D. Kinetic SDS-PAGE fluorescence imaging experiment to determine Rha-AI-cARM/anti-23F antibody labeling kinetics using A647-cARM (8). cARM 8 (2–100 μM) was incubated with anti-23F antibody (2 μM) for up to 4 h. A representative fluorescence gel image is included corresponding to compound 8 (50 μM) incubated with either anti-23F antibody or isotype human IgG. Densitometry analysis with ImageJ was used to quantify relative band intensities. […] The error is calculated by alternative fits of initial rates data (all within the linear labeling range).
Next, we tested if cARM tool compounds can selectively label endogenous human polyclonal antirhamnose antibodies via ELISA (4 α-O rhamnose or 5 α-S rhamnose) (Figure 2B). cARMs (4, 5) and noncovalent analog ARMs (1, 2) were incubated with 2% human serum for 48 h followed by addition to a streptavidin-ELISA plate. Antibody recruitment to the plate surface was measured via the addition of HRP-conjugated anti-IgG or anti-IgM secondary antibody, followed by a chromogenic substrate. […] In the absence of a competitor, we observed robust absorbance signal in samples incubated with cARM. […]
For orientation: An ELISA detects its analyte on a solid surface through an enzyme-linked reagent.

Experiment [2] has as its target prostate-specific membrane antigen (PSMA). As to conditions: cited from earlier work.
In experiment [3] the test system is serum polyclonal antirhamnose antibodies (human IgG). Briefly: BLI affinity of rhamnose probes for polyclonal human IgG. The class given is binding. As to conditions: for kon: anti-rhamnose assumed 3% of total IgG; for koff: dissociation in 100 mM L-rhamnose. The text has this: We began by synthesizing antirhamnose affinity probes consisting of α-O/α-S and β-S rhamnose glycosides functionalized with a propargyl group for CuAAC-mediated coupling to a biotin TBD (compounds 1–3, Figure 1A and Scheme S1). This enabled rhamnose immobilization onto streptavidin surfaces and subsequent antibody binding studies. We used biolayer interferometry (BLI) to estimate and compare the apparent affinity of serum polyclonal antirhamnose antibodies for each rhamnose affinity probe (Figure 1B). […] Next, biosensors were submerged in a buffer containing free rhamnose competitor, and dissociation kinetics were measured (Figure 1B, Dissociation). The dissociation buffer contained 100 mM rhamnose competitor to inhibit avidity-based antibody rebinding, which interferes with koff measurements. […] In the context of proximity-inducing molecule development, this low monovalent sugar-binding affinity will ultimately limit ternary complex formation. […] The confirmation of low affinity binding also supports why multivalency has been historically required to efficiently engage antirhamnose antibodies for tumor-immune proximity induction and engage sugar binding receptors in general.
Figure 1 Affinity determination of endogenous and monoclonal antibody sources for L-rhamnose glycoside variants. A. Chemical structures of rhamnose affinity probes. B/C. Approximation of antirhamnose antibody binding affinity for probes 1–3 using biolayer interferometry. B. Purified human serum IgG is used to estimate the affinity of endogenous polyclonal serum antirhamnose antibodies for each affinity probe 1–3. C. Monoclonal anti-23F antibody is used to estimate the potential affinity of vaccine-induced antirhamnose antibodies for each affinity probe 1–3. […] Association was monitored for 900 (B) or 600 (C) seconds. The loaded biosensor probe was then dipped into a dissociation solution of 100 mM L-rhamnose for 600 s. Association curves were fit to a two-phase association model in GraphPad Prism using Kfast to calculate kon. Dissociation curves were similarly fit to a two-phase decay using Kfast to calculate koff. TEXT PRINTED IN THE PICTURE: (B) no label printed: Polyclonal Human IgG: Kd ≈ 7 x10^-5 M | (C) no label printed: Monoclonal Anti-23F: Kd ≈ 6 x10^-6 M DOUBTS OF THE COPYIST ABOUT THIS PICTURE: Panel B, Kd ≈ 7 x10^-5 M: printed once in the plot with no link to a single curve, so it is unclear which of (1) α–O, (2) α–S and (3) β–S it applies to / Panel C, Kd ≈ 6 x10^-6 M: printed once in the plot with no link to a single curve, so it is unclear which of (1) α–O, (2) α–S and (3) β–S it applies to […]
General Notes and Materials […]
Biolayer Interferometry (BLI) General notes and Materials
IgG from human serum was purchased from Innovative Research (IHUI GGAP1000MG). Anti -23F antibody was purchased fr om Creative Biolabs (PABX -173). Biolayer Interferometry (BLI) was conducted using a ForteBio Octet Red96, and streptavidin biosensors (Sartorius - 18-5019) or ProG biosensors (Sartorius – 18-5082). For quench, a 5% skim milk (Nestle Carnation Instant Skim Milk) solution in 1X kinetics buffer was used. The instrument was set at 25 °C, with 1000 RPM, and acquisition rate of 5 Hz.
Each well of a black well plate (Greiner Bio -One - 655086) was filled with 200 µL of appropriate solution.
Dissociation buffer was comprised of L-rhamnose (100 mM, Sigma Aldrich – R3875-10G) in 1X kinetics buffer to reduce avidity contribution to dissociation rate (koff).
SDS-PAGE General notes and Materials […]
Carboxyfluorescein was purchased from Sigma Aldrich (21877 -5G-F). IgG from human serum was purchased from Innovative Research (IHUIGGAP1000MG). Anti -23F antibody was purchased from Creative Biolabs (PABX -173). Laemellie Buffer (2x) was purchased from Sigma Aldrich (S3401 -10VL).
Pre-cast Tris-Glycine Gels (4-20%) were purchased from Fisher Scientific (XP04202BOX). Standard protein ladder was purchased from Bio Rad (1610363). […]

Read-outs that look alike come from different tables or passages of the source. A value given as a limit tells only on which side of the number the result lay.

As to `C[C@@H]1O[C@@H](SCc2cn(CCc3cn(C(=O)OCCOCCOCCOCCOCCOCCOCCOCCNC(=O)CCCC[C@@H]4SC[C@@H]5NC(=O)N[C@@H]54)cn3)nn2)[C@H](O)[C@H](O)[C@H]1O` [compound 5], the “antibody binding signal, quench control” value in experiment [1] is listed as “significant antibody binding signal”.
Take glutamate urea [GU]: the Kd in experiment [2] was below 10 nM.
For the molecule `C[C@@H]1O[C@H](SCc2cn(CCOCCNC(=O)OCCOCCOCCOCCOCCOCCOCCOCCNC(=O)CCCC[C@@H]3SC[C@@H]4NC(=O)N[C@@H]43)nn2)[C@H](O)[C@H](O)[C@H]1O` [compound 3], the kon is 19771 M⁻¹ s⁻¹ in experiment [3] (26.2 µM IgG), 11537 M⁻¹ s⁻¹ in experiment [3] (52.5 µM IgG) and 6254 M⁻¹ s⁻¹ in experiment [3] (105 µM IgG). For the same molecule, the koff in experiment [3] (26.2 µM IgG) was 0.576 s⁻¹; in experiment [3] (52.5 µM IgG) it was 0.481 s⁻¹; in experiment [3] (105 µM IgG) it was 0.3901 s⁻¹. In addition, the Kd in experiment [3] (26.2 µM IgG, read-out: Kd) worked out at 29 µM; in experiment [3] (52.5 µM IgG, read-out: Kd), 42 µM; in experiment [3] (105 µM IgG, read-out: Kd), 62 µM; in experiment [3] (average of three IgG concentrations, read-out: Avg Kd) it was 44 ± 17 µM.
